Where “and” joins values, the source holds several entries; their conditions need not be identical. Equal entries are not always repeated. Values belong to the compound of their own block, whether it stands above or below them.
Columns and labels:
[1] = test system: Male ICR mice; assay: Serum ALT and AST (liver function biomarkers); format: in vivo; settings: for ALT serum concentration / AST serum concentration: mean ± SE
Experimental: (§1) Animals were fasted overnight prior to dose administration and randomly assigned to each of the four experimental groups. Mice in group A (n = 6) were administered saline; mice in group B mice (n = 6) were administered paracetamol only, 500 mg/kg IP. Group C was further subdivided into five different dose-groups of sunitinib only treatment: 25, 50, 80, 100 and 140 mg/kg administered PO (n = 6 for each dose group). Finally, mice in group D were co-administered paracetamol (500 mg/kg IP) and sunitinib at different doses: 25, 50, 80, 100 and 140 mg/kg PO (n = 6 each dose group). A feeding needle was used to ensure the full administration of the dose. Paracetamol was administered 15 minutes before sunitinib and animals were sacrificed 4 hours post sunitinib administration by cervical dislocation. Blood was obtained via cardiac puncture, allowed to clot, centrifuged (1500 rpm, 10 min, room temperature) and stored at -20°C until analysis. The liver and kidneys were excised from the mice and processed for histology assessment.
(§2) Biochemistry analysis of serum ALT and AST was performed using standard assay kits (BiooScientific Corp., USA). The concentration in duplicate samples was measured at 340 nm using a microplate reader (Tecan Infinite F200). Similarly, blood urea nitrogen (BUN) and creatinine concentration were measured using specific assay kits (BioAssay Systems, USA) and measured at 490 nm (duplicate samples) in a Dynex OpsysMR microplate reader.
(§3) The effect of the drug combination on the biomarker levels compared to sunitinib alone treatment was assessed with the aid of SPSS 16.0 with the significance level set at p < 0.05. Independent-samples t-test (for samples normally distributed based on Shapiro-Wilk test) for pair-wise comparison was performed at each dose of the sunitinib alone and sunitinib and paracetamol combination groups. Samples that were not normally distributed were tested using the Mann Whitney test.

[2] = test system: Male ICR mice; assay: Serum BUN and creatinine (renal function biomarkers); format: in vivo; settings: for BUN serum concentration / Creatinine serum concentration: mean ± SE, n = 6
Experimental: as §1, §2, §3

[3] = test system: liver tissue; assay: Histopathology assessment of liver (H&E, semi-quantitative grading); format: in vivo; settings: mice
Experimental: as §1
(§4) Processing of tissue samples for histology assessment followed established procedures. In brief, the tissue samples were rinsed with 0.9% saline solution, fixed in 10% formalin. Then the diagonal section of the liver, the transverse section of the kidneys and heart and the horizontal section of the spleen and the posterior section of the brain were obtained and processed (Leica TP1020, Japan) as follows: (1) 10% neutral buffered formalin for 1 h, twice; (2) 70% alcohol for 1.5 h; (3) 80% alcohol for 1.5 h; (4) 90% alcohol for 1.5 h; (5) absolute alcohol for 1.5 h, twice; (6) xylene for 1.5 h, twice; (7) in molten wax at 65°C for 2.5 h two changes. The processed tissues were embedded in paraffin and sectioned at 4 microns thickness, placed on frosted glass slides and dried on a 70°C hot plate for 30 minutes.
(§5) The tissues were stained using the hematoxylin and eosin (H&E) stains. The sections were dewaxed in two changes of xylene (3 min each), hydrated in two changes of 100% ethanol, followed by 90% ethanol and 70% ethanol, for 3 min each, rinsed with water (3 min) and stained. […]
(§6) Histopathology changes were observed and grouped based on two main criteria: vascular changes including vessel congestion, extravasation of red blood cells and hematoma formation; and necrotic changes including necrosis, fibrosis, nuclear changes, abscesses and cell regeneration. The morphological changes were assessed semi-quantitatively, blind by two independent assessors and graded as follows: No change - 0 (no distinguishable change, 0%); mild change - 1 (initiation of changes, up to 30%); moderate change - 2 (patent changes, 31-60%); severe change - 3 (wide spread changes, 61-100%). […]

[4] = test system: kidney tissue; assay: Histopathology assessment of kidney (H&E, semi-quantitative grading); format: in vivo; settings: mice
Experimental: as §1, §4
(§7) The tissues were stained using the hematoxylin and eosin (H&E) stains. The sections were dewaxed in two changes of xylene (3 min each), hydrated in two changes of 100% ethanol, followed by 90% ethanol and 70% ethanol, for 3 min each, rinsed with water (3 min) and stained. The stained tissues were dehydrated with 70% ethanol followed by 90% ethanol, placed in two changes of 100% ethanol for 3 minutes each and cleaned with two changes of xylene (3 min each).
(§8) Histopathology changes were observed and grouped based on two main criteria: vascular changes including vessel congestion, extravasation of red blood cells and hematoma formation; and necrotic changes including necrosis, fibrosis, nuclear changes, abscesses and cell regeneration. The morphological changes were assessed semi-quantitatively, blind by two independent assessors and graded as follows: No change - 0 (no distinguishable change, 0%); mild change - 1 (initiation of changes, up to 30%); moderate change - 2 (patent changes, 31-60%); severe change - 3 (wide spread changes, 61-100%). Then, using SPSS 16.0, the Mann-Whitney test was used for pair-wise comparison between the sunitinib alone group and the combination group at each dose. The differences were considered significance if p < 0.05.

[5] = test system: heart tissue; assay: Histopathology assessment of heart (H&E, semi-quantitative grading); format: in vivo; settings: mice
Experimental: as §1, §4, §7, §8

[6] = test system: brain tissue; assay: Histopathology assessment of brain (H&E, semi-quantitative grading); format: in vivo; settings: mice; for Brain histopathological changes: 4 h
Experimental: as §1
Processing of tissue samples for histology assessment followed established procedures. In brief, the tissue samples were rinsed with 0.9% saline solution, fixed in 10% formalin. […]
as §6

[7] = test system: spleen; assay: Histopathology assessment of spleen (H&E, semi-quantitative grading); format: in vivo; settings: mice; for Spleen inflammatory changes: at any dose; for Spleen vascular changes: study doses of each treatment group
Experimental: as §1, §4, §5, §6

[8] = humans; cited from earlier work
[9] = test system: plasma proteins; settings: humans; cited from earlier work
[10] = design: method as in PMID 19169880; settings: mice, cited from earlier work
[11] = test system: mouse plasma proteins; design: method as in PMID 19169880; settings: fraction unbound independent of concentration; cited from earlier work
[12] = design: method as in earlier work; settings: monkeys; up; cited from earlier work
[13] = design: method as in PMID 16520665; settings: mice; cited from earlier work
[14] = test system: P450; design: method as in PMID 20020268; settings: cited from earlier work
[15] = sunitinib 25 mg/kg PO alone, 4 h post dose, n = 6
[16] = sunitinib 50 mg/kg PO alone, 4 h post dose, n = 6
[17] = sunitinib 80 mg/kg PO alone, 4 h post dose, n = 6
[18] = sunitinib 100 mg/kg PO alone, 4 h post dose, n = 6
[19] = sunitinib 140 mg/kg PO alone, 4 h post dose, n = 6
[20] = sunitinib alone 25-140 mg/kg PO, 4 h post dose
[21] = sunitinib 25 mg/kg PO alone, 4 h post dose
[22] = sunitinib 50 mg/kg PO alone, 4 h post dose
[23] = sunitinib 80 mg/kg PO alone, 4 h post dose
[24] = sunitinib 100 mg/kg PO alone, 4 h post dose
[25] = sunitinib 140 mg/kg PO alone, 4 h post dose
[26] = increasing doses of sunitinib alone (25-140 mg/kg PO), 4 h
[27] = paracetamol 500 mg/kg IP alone, n = 6
[28] = paracetamol 500 mg/kg IP alone, n = 6, listed as paracetamol

BUN serum concentration [2, 21]: 20.08 ± 2.54 mg/dL | Creatinine serum concentration [2, 21]: 0.535 ± 0.033 mg/dL | BUN serum concentration [2, 22]: 17.5 ± 1.25 mg/dL | Creatinine serum concentration [2, 22]: 0.594 ± 0.082 mg/dL | BUN serum concentration [2, 23]: 19.71 ± 0.58 mg/dL | Creatinine serum concentration [2, 23]: 0.528 ± 0.064 mg/dL | BUN serum concentration [2, 24]: 17.62 ± 0.94 mg/dL | Creatinine serum concentration [2, 24]: 0.533 ± 0.060 mg/dL | BUN serum concentration [2, 25]: 26.68 ± 6.05 mg/dL | Creatinine serum concentration [2, 25]: 0.559 ± 0.051 mg/dL | BUN concentrations, range of group means [2, 20]: 17.50 to 26.68 mg/dL | Creatinine serum concentration, range of group means [2, 20]: 0.528 to 0.594 mg/dL | Renal inflammatory changes ([4]; sunitinib alone PO, doses below 140 mg/kg, 4 h): no signs of inflammatory changes | Heart inflammatory changes ([5]; sunitinib alone PO, 4 h): no inflammatory changes | Spleen inflammatory changes [7]: no inflammatory changes | Spleen vascular changes [7]: did not reveal any vascular changes
Compound: CCN(CC)CCNC(=O)c1c(C)[nH]c(/C=C2\C(=O)Nc3ccc(F)cc32)c1C [Sunitinib]
ALT serum concentration [1, 15]: 61.40 ± 26.57 U/L | AST serum concentration [1, 15]: 204.6 ± 50.3 U/L | ALT serum concentration [1, 16]: 36.75 ± 12.15 U/L | AST serum concentration [1, 16]: 204.4 ± 49.4 U/L | ALT serum concentration [1, 17]: 75.02 ± 20.37 U/L | AST serum concentration [1, 17]: 290.3 ± 77.7 U/L | ALT serum concentration [1, 18]: 47.61 ± 24.50 U/L | AST serum concentration [1, 18]: 243.0 ± 66.4 U/L | ALT serum concentration [1, 19]: 50.89 ± 18.90 U/L | AST serum concentration [1, 19]: 239.5 ± 65.9 U/L | ALT serum concentration, range of group means [1, 20]: 36.75-75.02 U/L | AST serum concentration, range of group means [1, 20]: 204.4-290.3 U/L and 204.64 - 290.28 U/L | Hepatic inflammatory changes (grade) [3, 26]: mild (mild change - 1 (initiation of changes, up to 30%)) | Hepatic vascular changes (grade) [3, 26]: mild (mild change - 1 (initiation of changes, up to 30%)) | Renal inflammatory changes ([4]; sunitinib alone 140 mg/kg PO, 4 h): some tubular necrosis | Renal vascular changes (grade) ([4]; sunitinib alone 25-140 mg/kg PO, 4 h): mild (mild change - 1 (initiation of changes, up to 30%)) | Cardiotoxicity (damage grade) ([5]; 25 - 80 mg/kg doses of sunitinib, reduction in relation to the paracetamol group): no damage to moderate damage | Heart vascular congestion (grade) ([5]; sunitinib alone PO, 4 h): mild (mild change - 1 (initiation of changes, up to 30%)) | Brain histopathological changes ([6]; sunitinib alone PO at high doses): toxicity decreased | Brain histopathological changes ([6]; sunitinib alone PO at low doses (p < 0.05 at 25 and 80 mg/kg)): Some congestion of vessels at the 'cortical junction' as well as evidence of liquefactive necrosis | Dose eliminated in the faeces [8]: 61% | Half-life [8]: 40 to 60 h | Recovered unchanged in urine [8]: around 16% | Time after dosing at which maximum plasma concentration is reached [8]: 6 to 12 h | Bound to albumin [9]: 95% | Elimination half-life ([10]; after oral administration): 1.5 to 7.6 h | Time within which maximum concentration is achieved [10]: 0.5 to 6 h | Bound to mouse plasma proteins [11]: 91% | Brain penetration, percent of plasma concentrations [12]: 30%-40 | Brain penetration, times the plasma concentration [13]: 4-7 times

Compound: CCNCCNC(=O)c1c(C)[nH]c(/C=C2\C(=O)Nc3ccc(F)cc32)c1C [SU12662]
Half-life [8]: 80 to 110 h | Bound to plasma proteins [9]: 90% | Bound to mouse plasma proteins [11]: 95% | Brain penetration, percent of plasma concentrations [12]: 30%-40 | Brain penetration, times the plasma concentration [13]: 4-7 times

Increase of creatinine serum concentration vs baseline control ([2]; paracetamol 500 mg/kg IP alone): 21% | BUN serum concentration ([2]; paracetamol 500 mg/kg IP alone): 33.81 ± 5.68 mg/dL | Creatinine serum concentration ([2]; paracetamol 500 mg/kg IP alone): 0.644 ± 0.110 mg/dL | Brain vascular or inflammatory changes ([6]; paracetamol 500 mg/kg IP alone): no vascular or inflammatory changes | Spleen inflammatory changes [7]: no inflammatory changes | Spleen vascular changes [7]: did not reveal any vascular changes
Compound: CC(=O)Nc1ccc(O)cc1 [PCM, paracetamol]
Mean serum AST relative to vehicle control group ([1]; paracetamol 500 mg/kg IP alone): 2 fold | ALT serum concentration [1, 27]: 249.6 ± 222.7 U/L | AST serum concentration [1, 27]: 377.1 ± 173.6 U/L | ALT serum concentration [1, 28]: 249.60 ± 222.72 U/L | AST serum concentration [1, 28]: 377.09 ± 173.55 U/L | Hepatic inflammatory changes (grade) ([3]; paracetamol 500 mg/kg IP alone): moderate (moderate change - 2 (patent changes, 31-60%)) | Hepatic vascular changes (grade) ([3]; paracetamol 500 mg/kg IP alone): mild (mild change - 1 (initiation of changes, up to 30%)) | Renal inflammatory changes (grade) ([4]; paracetamol 500 mg/kg IP alone): mild (mild change - 1 (initiation of changes, up to 30%)) | Renal vascular changes (grade) ([4]; paracetamol 500 mg/kg IP alone): mild (mild change - 1 (initiation of changes, up to 30%)) | Heart inflammatory changes (grade) ([5]; paracetamol 500 mg/kg IP alone): mild (mild change - 1 (initiation of changes, up to 30%)) | Heart vascular congestion (grade) ([5]; paracetamol 500 mg/kg IP alone): mild (mild change - 1 (initiation of changes, up to 30%)) | Amount undergoing P450 mediated oxidation to NAPQI [14]: ~ 5%

From publication PMC2965131, “Histopathology and biochemistry analysis of the interaction between sunitinib and paracetamol in mice” (BMC Pharmacology, 2010)
